This is an account of results in patent US11279691B2, “Substituted pyridine and pyrazine compounds as PDE4 inhibitors” (Dart Neuroscience LLC, priority 2013, dated 2022).

Each structure is given as a SMILES string.

In the experiment the target is T1, PDE4D3 (Homo sapiens, UniProt Q08499).
T1 construct: GST
T1 sequence (Q08499 1-673 isoform Q08499-2): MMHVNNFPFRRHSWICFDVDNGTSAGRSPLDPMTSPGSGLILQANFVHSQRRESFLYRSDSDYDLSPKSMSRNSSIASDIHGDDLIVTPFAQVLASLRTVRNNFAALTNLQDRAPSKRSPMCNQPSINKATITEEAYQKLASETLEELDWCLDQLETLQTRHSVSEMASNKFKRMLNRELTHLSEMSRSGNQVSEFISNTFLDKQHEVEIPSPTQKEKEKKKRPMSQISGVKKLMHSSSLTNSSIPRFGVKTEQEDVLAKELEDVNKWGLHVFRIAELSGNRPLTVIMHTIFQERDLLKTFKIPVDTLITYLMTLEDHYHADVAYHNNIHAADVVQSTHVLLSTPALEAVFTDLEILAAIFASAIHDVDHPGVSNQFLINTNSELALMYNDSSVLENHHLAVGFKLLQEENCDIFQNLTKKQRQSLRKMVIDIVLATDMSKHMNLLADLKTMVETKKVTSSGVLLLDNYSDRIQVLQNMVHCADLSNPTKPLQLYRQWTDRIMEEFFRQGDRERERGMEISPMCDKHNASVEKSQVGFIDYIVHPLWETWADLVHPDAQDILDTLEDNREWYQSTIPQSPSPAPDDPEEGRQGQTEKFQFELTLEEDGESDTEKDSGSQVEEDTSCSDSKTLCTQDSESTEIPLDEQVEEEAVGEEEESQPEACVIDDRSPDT
It counts as biochemical. The settings on record: GST-tagged PDE4D3, 200 nM FAM-cAMP, 11-point dose-response; read-out: PD4d3 pEC50 (converted).
Consider `COc1ncc(Cn2nnc(CO)n2)cc1-c1cccc(Cl)c1` [Example 388, (2-{[5-(3-Chlorophenyl)-6-methoxypyridin-3-yl]methyl}-2H-1,2,3,4-tetrazol-5-yl)methanol], for which the EC50 is 100 to 1000 nM.

As for `CCOc1ncc(Cn2nnnc2C)cc1-c1ccc(F)c(F)c1` [Example 395, 3-(3,4-Difluorophenyl)-2-ethoxy-5-[(5-methyl-1H-1,2,3,4-tetrazol-1-yl)methyl]pyridine], the EC50 was less than 100 nM.

`COc1ncc(Cn2nnnc2C)cc1-c1cccc(Cl)c1` [Example 380, 3-(3-Chlorophenyl)-2-methoxy-5-[(5-methyl-1H-1,2,3,4-tetrazol-1-yl)methyl]pyridine]: the EC50 was less than 100 nM.

Consider `CCOc1ncc(Cn2nnc(C)n2)cc1-c1ccnc(OC(F)F)c1` [Example 394, 3-[2-(Difluoromethoxy)pyridin-4-yl]-2-ethoxy-5-[(5-methyl-2H-1,2,3,4-tetrazol-2-yl)methyl]pyridine], for which the EC50 is less than 100 nM.

In the case of `COc1ncc(Cc2cnc(OC(F)F)nc2)cc1-c1cccc(Cl)c1` [Example 304, 5-((5-(3-Chlorophenyl)-6-methoxypyridin-3-yl)methyl)-2-(difluoromethoxy)pyrimidine], the EC50 was 100 to 1000 nM.

Turning to `CCOc1ncc(Cn2cnc(C(F)(F)F)n2)cc1-c1cccc(OC(F)F)c1` [Example 162, 3-[3-(Difluoromethoxy)phenyl]-2-ethoxy-5-{[3-(trifluoromethyl)-1H-1,2,4-triazol-1-yl]methyl}pyridine], the EC50 is 100 to 1000 nM.

Consider `COc1ncc(Cn2nnnc2CO)cc1-c1ccc(F)cc1` [Example 382, (1-{[5-(4-Fluorophenyl)-6-methoxypyridin-3-yl]methyl}-1H-1,2,3,4-tetrazol-5-yl)methanol], for which the EC50 was 1000 to 10000 nM.

For the compound `COc1ncc(Cc2cnc(NCCO)nc2)cc1-c1ccc(F)cc1` [Example 283, 2-[(5-{[5-(4-Fluorophenyl)-6-methoxypyridin-3-yl]methyl}pyrimidin-2-yl)amino]ethan-1-ol], the EC50 is 100 to 1000 nM.

As for `COc1ncc(Cc2cnc(NCCO)cn2)cc1-c1cccc(Cl)c1` [Example 290, 2-((5-((5-(3-Chlorophenyl)-6-methoxypyridin-3-yl)methyl)pyrazin-2-yl)amino) ethanol], the EC50 is less than 100 nM.

As for `N#CCc1ncn(Cc2cnc(OC(F)F)c(-c3cccc(Cl)c3)c2)n1` [Example 285, 2-(1-{[5-(3-chlorophenyl)-6-(difluoromethoxy)pyridin-3-yl]methyl}-1H-1,2,4-triazol-3-yl)acetonitrile], the EC50 is 100 to 1000 nM.

As for `CCOc1ncc(Cc2cnc(N)nc2)cc1-c1ccc(F)c(C)c1` [Example 352, 5-{[6-Ethoxy-5-(4-fluoro-3-methylphenyl)pyridin-3-yl]methyl}pyrimidin-2-amine], the EC50 is less than 100 nM.

For `CCOc1ncc(Cn2cc(CO)nc2C)nc1-c1cccc(Cl)c1` [Example 324, (1-{[6-(3-Chlorophenyl)-5-ethoxypyrazin-2-yl]methyl}-2-methyl-1H-imidazol-4-yl)methanol], the EC50 was 100 to 1000 nM.

For `COc1ncc(Cc2cnc(N)nc2)cc1-c1ccc(Cl)c(F)c1` [Example 361, 5-{[5-(4-Chloro-3-fluorophenyl)-6-methoxypyridin-3-yl]methyl}pyrimidin-2-amine], the EC50 was 100 to 1000 nM.

`COc1ncc(Cn2ccc(C(N)=O)n2)cc1-c1cccc(Cl)c1` [Example 308, 1-{[5-(3-Chlorophenyl)-6-methoxypyridin-3-yl]methyl}-1H-pyrazole-3-carboxamide]: the EC50 was 100 to 1000 nM.

As for `CCOc1ncc(Cn2cnc(CO)n2)cc1-c1ccc(F)c(Cl)c1` [Example 337, (1-{[5-(3-Chloro-4-fluorophenyl)-6-ethoxypyridin-3-yl]methyl}-1H-1,2,4-triazol-3-yl)methanol], the EC50 is less than 100 nM.

Regarding `NC(=O)Cc1ncc(Cc2cnc(OCC(F)F)c(-c3cccc(Cl)c3)c2)cn1` [Example 371, 2-(5-{[5-(3-Chlorophenyl)-6-(2,2-difluoroethoxy)pyridin-3-yl]methyl}pyrimidin-2-yl)acetamide], the EC50 was less than 100 nM.

Take `CCOc1ncc(Cc2cnc(N)nc2)cc1-c1ccc(F)c(F)c1` [Example 353, 5-{[5-(3,4-Difluorophenyl)-6-ethoxypyridin-3-yl]methyl}pyrimidin-2-amine]: the EC50 is less than 100 nM.

As to `CCOc1ncc(Cc2cnc(CO)c(F)c2)cc1-c1ccnc(OC(F)F)c1` [Example 405, [5-({5-[2-(Difluoromethoxy)pyridin-4-yl]-6-ethoxypyridin-3-yl}methyl)-3-fluoropyridin-2-yl]methanol], the EC50 is less than 100 nM.

Turning to `CCOc1ncc(Cn2cnc(CO)n2)cc1-c1ccc(Cl)cc1` [Example 328, (1-{[5-(4-Chlorophenyl)-6-ethoxypyridin-3-yl]methyl}-1H-1,2,4-triazol-3-yl)methanol], the EC50 was 100 to 1000 nM.

As to `COc1ncc(Cn2nnc(CO)n2)cc1-c1ccc(F)c(F)c1` [Example 383, (2-{[5-(3,4-Difluorophenyl)-6-methoxypyridin-3-yl]methyl}-2H-1,2,3,4-tetrazol-5-yl)methanol], the EC50 is 100 to 1000 nM.

For the compound `COc1ncc(Cc2cnc(C(C)(C)C#N)nc2)cc1-c1cccc(Cl)c1` [Example 284, 2-(5-((5-(3-Chlorophenyl)-6-methoxypyridin-3-yl)methyl)pyrimidin-2-yl)-2-methylpropanenitrile], the EC50 was 1000 to 10000 nM.

As for `COc1ncc(Cc2ccc(C#N)cn2)cc1-c1cccc(Cl)c1` [Example 378, 6-{[5-(3-Chlorophenyl)-6-methoxypyridin-3-yl]methyl}pyridine-3-carbonitrile], the EC50 was 100 to 1000 nM.

`COc1ncc(Cc2cnc(OCC(N)=O)nc2)cc1-c1cccc(Cl)c1` [Example 298, 2-((5-((5-(3-Chlorophenyl)-6-methoxypyridin-3-yl)methyl)pyrimidin-2-yl)oxy)acetamide]: the EC50 was less than 100 nM.

For the compound `CCOc1ncc(Cc2cnc(NCCO)nc2)nc1-c1ccc(F)c(F)c1` [Example 294, 2-((5-((6-(3,4-difluorophenyl)-5-ethoxypyrazin-2-yl)methyl)pyrimidin-2-yl)amino)ethanol], the EC50 is less than 100 nM.

`COc1ncc(Cc2cnc(CC#N)nc2)cc1-c1ccc(F)c(F)c1` [Example 358, 2-(5-{[5-(3,4-Difluorophenyl)-6-methoxypyridin-3-yl]methyl}pyrimidin-2-yl)acetonitrile]: the EC50 was less than 100 nM.
